This is an account of results in US9694087B2, “Development of novel macromolecule transduction domain with improved cell permeability and method for using same” (priority 2011, dated 2017).

Data set [1] concerns human skin. In words: Primary stimulus test using human skin (patch test). Particulars: overall evaluation from Table 4. It counts as in vivo. The method, then:
To confirm safety of the modified MTD (M1067) synthesized in Example 4, the modified MTD (M1067)-coumaric acid and the modified MTD (M1067)-acetyl pentapeptide synthesized in Examples 12-1 and 12-2, a primary stimulus test using human skin was performed. The test was conducted by a specialized clinical research organization, Dermapro, and the clinical composition was prepared as will be described below. 30 or more subjects meeting standards for the clinical test and not falling under exclusion standards were selected. Sample materials were applied to backs of the subjects, and removed after 48 hours. The test sites were observed 30 minutes and 24 hours later, after the removal.
The skin evaluation was performed by the Frosch & Kligman method (Frosch P. J and Kligman A. M. J Am Acad Dermatol, 1(1):35-41 (1979)) and standards shown in Table 3 reflecting the Cosmetic, Toiletry, and Fragrance Association (CTFA) guidelines (The Cosmetic, Toiletry and Fragrance Association, Inc. Washington, D.C. 20005 (1981)), average degrees of reaction after 48 and 72 hours were compared, and results were determined based on the average degree of reaction of each composition.

Data set [2] deals with ICR mice. In words: In vivo epithelial tissue (skin) permeability by confocal microscopy. Conditions: FITC-labelled, applied on gauze to back skin, 1, 3, 6 and 12 hours; FIG. 12. On the set-up: species or system mouse. The method, then: After 1, 3, 6, and 12 hours, the mice were sacrificed by cervical dislocation, and skin at the drug-applied parts was extracted. Afterward, the skin was put in 4% paraformaldehyde for 24 hours to fix a tissue and then prepared in a 6 μm cryosection to form a slide. […] The stained tissue was washed again three times with PBS buffer for 10 minutes, fixed with mounting media, and observed by confocal microscopy.

Data set [3] has as its system HeLa cells. In words: Visible cell permeability by confocal microscopy, cervix adenocarcinoma cells. It is filed as cell-based, human. Conditions: 5 μM, 1 hour, FIG. 10. As to the method: Cell permeability of HeLa cells (HeLa cell, Human cervix adenocarcinoma, Cat No. CCL-2, ATCC, USA) derived from Human cervix adenocarcinoma as cancer-derived cells was compared using a confocal microscope (Carl Zeisse, Germany).
Particularly, before a test, the HeLa cells were cultured in a 12-well culture plate with a glass cover slip for 24 hours. The HeLa cells were cultured in a DMEM medium containing 10% fetal bovine serum (FBS), and 1% penicillin/streptomycin (10,000 units penicillin and 10,000 μg/mL streptomycin, invitrogen), in a humidified atmosphere with 5% CO2 at 37° C. After 5 μM of peptides was treated to the […] for 1 hour, the cells were fixed with 4% paraformaldehyde (PFA) at room temperature for 20 minutes to observe the cell permeability using a confocal microscope.
To directly detect internalized MTD-FITC, the cells were washed three times with phosphoric acid buffer and 5 μM of 4′,6-diamidino-2-phenylindole (DAPI), which is a nucleus fluorescence staining solution, was counter-stained. […] In addition, an original form of the cell was observed using a nomarski filter with a confocal microscope, and FITC fluorescence and DAPI fluorescence were observed using a filter suitable for a fluorochrome.

Where a SMILES comes first, the peptide text is derived from it. Where no end group is shown, it is not given here. The star is where a group is joined. X1 = O=C(C=Cc1ccc(O)cc1)*

For `CSCC[C@H](N)C(=O)N[C@@H](CCCNC(=N)N)C(=O)N[C@@H](C)C(=O)N[C@@H](C)C(=O)N[C@@H](C)C(=O)N1CCC[C@H]1C(=O)N[C@@H](C)C(=O)N[C@H](C(=O)N[C@@H](C)C(=O)N[C@@H](C)C(=O)O)C(C)C` [M1067] (H-MRAAAPAVAA-OH), the “evaluation in the human skin primary stimulus test” value in data set [1] was “low-stimuli materials”.
On the same count and under the same terms, with `CSCC[C@H](NC(=O)[C@H](CCCNC(=N)N)NC(=O)[C@H](C)NC(=O)[C@H](C)NC(=O)[C@H](C)NC(=O)[C@@H]1CCCN1C(=O)[C@H](C)NC(=O)[C@@H](NC(=O)[C@H](C)NC(=O)[C@H](C)NC(=O)C=Cc1ccc(O)cc1)C(C)C)C(=O)O` [modified MTD (M1067)-coumaric acid] (X1-AAVAPAAARM-OH) the entry was “low-stimuli materials”.
With “GRKKRRQRRR (also: FITC label, place not given here) [Tat, used FITC-labelled, reference compound]”, the epithelial permeation result in data set [2] is “epithelial permeation was not induced”. The “intracellular localization of the FITC-peptide” value in data set [3] was “attached to an outside of the cell membrane”.
Take “M1103: modified MTD having an amino acid sequence of SEQ. ID. NO: 17 (MRLALPVLLLA; MTD 1103 Amino Acid Sequence)”: in data set [3], the “intracellular localization of the FITC-peptide” value is “apparently distributed into a cytoplasm”.
As for “Met Arg Ala Ala Ala Pro Ala Val Ala Ala Lys*Ther Ther Lys Ser [modified MTD (M1067)-acetyl pentapeptide]”, the “evaluation in the human skin primary stimulus test” value in data set [1] is recorded as “low-stimuli materials”.
